For 13 compounds, ring closure, yield of all isomers and EC50 results are on record in patent US10618930B2, “Compounds for the treatment of cancer” (Eisai R&D Management Co., Ltd., priority 2017, dated 2020).

The term EC50 denotes the concentration giving half of the maximal effect.

One series addresses Human STING (Homo sapiens, UniProt Q86WV6). The series is described as follows: Human STING reporter assay, Tables 6-8 (variant named only in a drawing). Particulars: read-out: Human STING EC50 (μM). On the technique in general: A reporter such as luciferase makes a cellular process visible.
Setting [1] is: Table 6, head only in drawing 188, ammonium salt form except Compounds 26, 33, 34 (bis-TEA salts).

Where two headings read alike, the source gives them in different places.

Human STING, sequence (Q86WV6 whole entry): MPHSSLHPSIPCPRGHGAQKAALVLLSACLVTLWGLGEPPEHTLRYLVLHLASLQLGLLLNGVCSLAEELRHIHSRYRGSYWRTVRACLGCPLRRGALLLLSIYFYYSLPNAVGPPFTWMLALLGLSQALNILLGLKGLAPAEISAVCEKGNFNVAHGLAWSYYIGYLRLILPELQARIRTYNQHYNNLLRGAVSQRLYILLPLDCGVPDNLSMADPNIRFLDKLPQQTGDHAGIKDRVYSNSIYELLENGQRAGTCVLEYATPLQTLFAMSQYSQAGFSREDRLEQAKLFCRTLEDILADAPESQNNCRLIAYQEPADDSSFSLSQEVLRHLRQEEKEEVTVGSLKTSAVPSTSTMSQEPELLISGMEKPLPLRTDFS

The compound `C=CCN(C(=O)c1ccccc1)c1ncnc2c1ncn2[C@@H]1O[C@@H]2COP(=S)(OCCC#N)O[C@H]3[C@@H](F)[C@H](n4cnc5c(N(CC=C)C(=O)c6ccccc6)ncnc54)O[C@@H]3COP(=O)(S)O[C@H]2[C@H]1F` (stereo partly shown) yielded a ring closure, yield of all isomers (from C=CCN(C(=O)c1ccccc1)c1ncnc2c1ncn2[C@@H]1O[C@H](COP(=S)(OCCC#N)O[C@H]2[C@@H](F)[C@H](n3cnc4c(N(CC=C)C(=O)c5ccccc5)ncnc43)O[C@@H]2CO)[C@@H](O[PH](=O)O)[C@H]1F, other bond, 2 steps) of 100%.

In the case of `CC(C)(C)[Si](C)(C)O[C@@H]1[C@@H]2N[P@@](=S)(OCCC#N)OC[C@H]3O[C@@H]4[C@H](O[Si](C)(C)C(C)(C)C)[C@@H]3N[P@](=S)(OCCC#N)OC[C@H]2O[C@H]1n1cnc2c(ncnc21)N(C(=O)c1ccccc1)CC=CCN(C(=O)c1ccccc1)c1ncnc2c1ncn24`, the ring closure, yield of all isomers (from C=CCN(C(=O)c1ccccc1)c1ncnc2c1ncn2[C@@H]1O[C@@H]2CO[P@@](=S)(OCCC#N)N[C@H]3[C@@H](O[Si](C)(C)C(C)(C)C)[C@H](n4cnc5c(N(CC=C)C(=O)c6ccccc6)ncnc54)O[C@@H]3CO[P@](=S)(OCCC#N)N[C@H]2[C@H]1O[Si](C)(C)C(C)(C)C, rcm bond) is 24.5%.

`CC(C)(C)[Si](C)(C)O[C@H]1[C@H]2O[P@@](=O)(SCc3ccccc3[N+](=O)[O-])OC[C@H]3O[C@@H]4[C@H](F)[C@@H]3O[P@](=O)(SCc3ccccc3[N+](=O)[O-])OC[C@H]1O[C@H]2n1cnc2c(ncnc21)N(C(=O)c1ccccc1)CC=CCN(C(=O)c1ccccc1)c1ncnc2c1ncn24` gave a ring closure, yield of all isomers (from C=CCN(C(=O)c1ccccc1)c1ncnc2c1ncn2[C@@H]1O[C@@H]2CO[P@](=O)(SCc3ccccc3[N+](=O)[O-])O[C@@H]3[C@H](O[Si](C)(C)C(C)(C)C)[C@@H](CO[P@@](=O)(SCc4ccccc4[N+](=O)[O-])O[C@H]2[C@H]1F)O[C@H]3n1cnc2c(N(CC=C)C(=O)c3ccccc3)ncnc21, rcm bond) of 6.1%.

For the setting “from C=CCN(C(=O)c1ccccc1)c1ncnc2c1ncn2[C@@H]1O[C@@H]2CO[P@@](=O)(SCc3ccccc3[N+](=O)[O-])O[C@H]3[C@@H](F)[C@H](n4cnc5c(N(CC=C)C(=O)c6ccccc6)ncnc54)O[C@@H]3CO[P@](=O)(SCc3ccccc3[N+](=O)[O-])O[C@H]2[C@H]1F, rcm bond”, `O=C(c1ccccc1)N1CC=CCN(C(=O)c2ccccc2)c2ncnc3c2ncn3[C@@H]2O[C@@H]3CO[P@](=O)(SCc4ccccc4[N+](=O)[O-])O[C@H]4[C@@H](F)[C@@H](O[C@@H]4CO[P@@](=O)(SCc4ccccc4[N+](=O)[O-])O[C@H]3[C@H]2F)n2cnc3c1ncnc32` returned a ring closure, yield of all isomers of 39%.

As for `O=C(c1ccccc1)N1CC=CCOc2ncnc3c2ncn3[C@@H]2O[C@@H]3COP(=O)(SCc4ccccc4[N+](=O)[O-])O[C@H]4[C@@H](F)[C@@H](O[C@@H]4COP(=O)(SCc4ccccc4[N+](=O)[O-])O[C@H]3[C@H]2F)n2cnc3c1ncnc32` (stereo partly shown), for the setting “from C=CCOc1ncnc2c1ncn2[C@@H]1O[C@@H]2COP(=O)(SCc3ccccc3[N+](=O)[O-])O[C@H]3[C@@H](F)[C@H](n4cnc5c(N(CC=C)C(=O)c6ccccc6)ncnc54)O[C@@H]3COP(=O)(SCc3ccccc3[N+](=O)[O-])O[C@H]2[C@H]1F, rcm bond”, the ring closure, yield of all isomers amounted to 25.6%.

On to `O=[N+]([O-])c1ccccc1CSP1(=O)OC[C@H]2O[C@H]([C@H](F)[C@@H]2O)n2cnc3c(ncnc32)CCC=CCCc2ncnc3c2ncn3[C@@H]2O[C@H](CO)[C@@H](O1)[C@H]2F` (stereo partly shown), for which, under “from C=CCCc1ncnc2c1ncn2[C@@H]1O[C@H](COP(=O)(O[C@H]2[C@@H](F)[C@H](n3cnc4c(CCC=C)ncnc43)O[C@@H]2COC(c2ccccc2)(c2ccc(OC)cc2)c2ccc(OC)cc2)SCc2ccccc2[N+](=O)[O-])[C@@H](O)[C@H]1F, rcm bond, 2 steps”, the ring closure, yield of all isomers is 26.2%.

For the setting “from C=CCOc1ncnc2c1ncn2[C@@H]1O[C@@H]2CO[P@@](=O)(SCc3ccccc3[N+](=O)[O-])O[C@H]3[C@@H](F)[C@H](n4cnc5c(OCC=C)ncnc54)O[C@@H]3CO[P@@](=O)(SCc3ccccc3[N+](=O)[O-])O[C@H]2[C@H]1F, rcm bond”, `O=[N+]([O-])c1ccccc1CS[P@]1(=O)OC[C@H]2O[C@@H]3[C@H](F)[C@@H]2O[P@](=O)(SCc2ccccc2[N+](=O)[O-])OC[C@H]2O[C@H]([C@H](F)[C@@H]2O1)n1cnc2c(ncnc21)OCC=CCOc1ncnc2c1ncn23` returned a ring closure, yield of all isomers of 3.6%.

In the case of `O=[P@]1(S)OC[C@H]2OC3[C@H](F)[C@@H]2O[P@](=O)(S)OC[C@H]2O[C@H]([C@H](F)[C@@H]2O1)n1cnc2c(ncnc21)NCC1NC1CNc1ncnc2c1ncn23` (single isomer, unassigned) [Compound 35], the EC50 at Human STING (setting [1]) was found to be 67.2 µM.

Regarding `O=[P@]1(S)OC[C@H]2OC3[C@H](F)[C@@H]2O[P@](=O)(S)OC[C@H]2O[C@H]([C@H](F)[C@@H]2O1)n1cnc2c(ncnc21)NCC1NC1CNc1ncnc2c1ncn23` (single isomer, unassigned) [Compound 36], the EC50 on Human STING (setting [1]) is 94.1 µM.

Take `O=[P@@]1(S)OC[C@H]2O[C@@H]3[C@H](F)[C@@H]2O[P@](=O)(S)OC[C@H]2OC([C@H](F)[C@@H]2O1)n1cnc2c(ncnc21)OC/C=C/COc1ncnc2c1ncn23` [Compound 26]: on Human STING (setting [1]), the concentration giving a half-maximal response (EC50) came to 7.4 µM.

For `O=P1(O)OC[C@H]2OC3[C@H](F)[C@@H]2O[P@@](O)(=S)OC[C@H]2O[C@H]([C@H](F)[C@@H]2O1)n1cnc2c(ncnc21)NC/C=C/CNc1ncnc2c1ncn23` [Compound 27], the half-maximal effective concentration (EC50) at Human STING came out at 27.6 µM.

Consider `O=P1(O)OC[C@H]2OC3[C@H](F)[C@@H]2O[P@](O)(=S)OC[C@H]2O[C@H]([C@H](F)[C@@H]2O1)n1cnc2c(ncnc21)NC/C=C/CNc1ncnc2c1ncn23` [Compound 28], for which the EC50 on Human STING came out at 18.4 µM.

Consider `O=[P@]1(S)OC[C@H]2OC3[C@H](F)[C@@H]2O[P@](=O)(S)OC[C@H]2O[C@H]([C@H](F)[C@@H]2O1)n1cnc2c(ncnc21)NCC#CCNc1ncnc2c1ncn23` [Compound 29], for which the EC50 on Human STING (setting [1]) amounted to 8.4 µM.
